The values below come from patent publication US20250092051A1, “NLRP3 MODULATORS AND USE THEREOF” (Bioentropy Inc., priority 2023, published 2025).

Assay [1] addresses T1, NLRP3 (Homo sapiens, UniProt Q96P20).
T1 construct: host or cells: THP-1 cells, PMA-differentiated, LPS-primed, nigericin-stimulated
Briefly: IL-1β assay (ELISA of THP-1 culture supernatant). Type of assay: cell-based. The following applies: PMA-differentiated THP-1, LPS 50 ng/ml 4 h, compound 30 min, nigericin 15 μM 45 min; Human IL-1β ELISA. The protocol: (§1) THP-1 cell lines (procell, #CL-0233) were cultured in RPMI-1640 medium (Gibco, #C11875500BT) supplemented with 10% FBS, 100 U/ml penicillin, 100 µg/ml streptomycin and 0.05 mM β-mercaptoethanol (BME). THP-1 cells were seeded at 5×10^5/ml in 12 well plates and were differentiated into macrophages by incubation with 5 ng/ml PMA (Sigma, #P8139-1MG) for 48 h. Cells were washed with PBS and then were primed with 50 ng/ml LPS (InvivoGen, #tlrl-b5lps) for 4 h. Medium were removed and replaced with serum free medium (SFM) containing compound (2.5-40 nM) or MCC950 (5-25 nM) for 30 min. Cells were then stimulated with 15 μM nigericin (Invivogen, #tlrl-nig) for 45 min.
The culture supernatant of THP-1 was removed and analyzed using Human IL-1β ELISA Kit according to the manufacturer's instructions (Beyotime, #PI305). The IL-1β concentration was measured at 450 nm wavelength of absorbance and calculated.
For orientation: An ELISA detects its analyte on a solid surface through an enzyme-linked reagent.

In assay [2] the target is T1, NLRP3. Briefly: THP-1 pyroptosis assay (caspase-1 p20 in supernatant by Western blot). Type of assay: cell-based. The following applies: PMA-differentiated THP-1, LPS 50 ng/ml 4 h, compound 30 min, nigericin 15 μM 45 min; caspase-1 p20 Western blot. The protocol:
as §1
The protein of supernatants was concentrated using StrataClean™ resin (Agilent, #400714) according to the manufacturer's instructions. The protein samples were resolved on 4-20% SDS-PAGE gels and transferred onto 0.45 PVDF membrane (Immobilon-P #IPVH00010) using a wet transfer system. Membranes were blocked in 5% (w/v) dried milk in PBST for 1 h at room temperature. Membranes were incubated with primary antibody (Adipogen, #AG-20B-0048B-C100) diluted in Primary Antibody Dilution Buffer (Beyotime, #P0023A-100 ml) according to the manufacturer's instructions, followed by incubation with the IgG(H+L) (HRP-labeled Goat Anti-Mouse IgG(H+L) (Beyotime, #A0216) diluted in 1% (w/v) dried milk in PBST for 1 h. The protein expression was visualized using Super ECL Detection Reagent (YEASEN,
FIG. 1. Results of Western blots for THP-1 cell-based pyroptosis assay using the cleavage of caspase-1 into p20 as reporting indication of NLRP3 inhibition. […] Molecule N-027 (Compound #51) and N-027B (Compound #53) inhibits NLRP3 inflammasome activation in macrophages, N-027 IC50 (caspase-1)<5 nM; N-027B IC50 (caspase-1) 1 nM. THP-1 cells were primed for 4 h with LPS (50 ng/ml), and then LPS-primed THP-1 cells were incubated with N-027 or N-027B for 30 min and then stimulated with nigericin (15 μM) for 45 min. Caspase-1 (p20) in supernatants were measured by Western blots.
Background: A western blot detects proteins with antibodies after separation by electrophoresis.

T1 sequence (Q96P20 whole entry): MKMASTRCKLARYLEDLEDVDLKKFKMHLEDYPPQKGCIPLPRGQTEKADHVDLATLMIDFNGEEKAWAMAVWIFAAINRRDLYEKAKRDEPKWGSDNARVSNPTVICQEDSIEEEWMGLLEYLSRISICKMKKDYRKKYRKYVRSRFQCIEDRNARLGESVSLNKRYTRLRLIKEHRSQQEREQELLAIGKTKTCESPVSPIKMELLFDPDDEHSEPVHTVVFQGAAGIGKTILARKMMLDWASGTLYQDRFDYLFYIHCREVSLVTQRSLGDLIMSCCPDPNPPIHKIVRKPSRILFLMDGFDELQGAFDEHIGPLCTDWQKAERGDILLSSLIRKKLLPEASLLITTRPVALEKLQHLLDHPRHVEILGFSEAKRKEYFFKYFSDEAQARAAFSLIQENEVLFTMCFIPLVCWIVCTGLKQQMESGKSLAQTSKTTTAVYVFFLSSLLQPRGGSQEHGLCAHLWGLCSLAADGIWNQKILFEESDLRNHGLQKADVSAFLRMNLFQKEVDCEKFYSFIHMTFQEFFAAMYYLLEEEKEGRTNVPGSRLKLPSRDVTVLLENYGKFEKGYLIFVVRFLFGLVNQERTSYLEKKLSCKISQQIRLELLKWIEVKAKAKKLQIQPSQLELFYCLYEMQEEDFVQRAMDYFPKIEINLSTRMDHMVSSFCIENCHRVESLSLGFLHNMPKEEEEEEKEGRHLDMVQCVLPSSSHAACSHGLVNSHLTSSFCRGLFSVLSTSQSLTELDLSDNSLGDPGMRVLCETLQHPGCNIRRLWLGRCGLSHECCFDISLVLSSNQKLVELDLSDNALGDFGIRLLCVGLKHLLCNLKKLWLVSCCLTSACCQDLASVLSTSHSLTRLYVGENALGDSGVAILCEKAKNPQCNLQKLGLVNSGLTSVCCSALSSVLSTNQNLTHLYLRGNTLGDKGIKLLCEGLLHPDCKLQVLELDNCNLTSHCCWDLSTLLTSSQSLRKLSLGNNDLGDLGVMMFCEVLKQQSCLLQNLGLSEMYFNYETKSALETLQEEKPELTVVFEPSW

Broadly, the IC50 is the point on the concentration scale where inhibition reaches its midpoint. Low readings indicate greater potency, high ones weaker potency. `Cc1cc(C2CC2)cc(C)c1-n1nc2nc(N3CCOC[C@H]3C)[nH]c(=O)c2n1` [Compound 107, (R)-2-(4-cyclopropyl-2,6-dimethylphenyl)-5-(3-methylmorpholino)-2H-[1,2,3]triazolo[4,5-d]pyrimidin-7(6H)-one] showed an IC50 at NLRP3 [1] below 33 nM.

Regarding `Cc1cc(C2CC2)cc(C)c1-n1nc2nc(N3CCOCC3)[nH]c(=O)c2n1` [Compound 3, 2-(4-cyclopropyl-2,6-dimethylphenyl)-5-morpholino-2,6-dihydro-7H-[1,2,3]triazolo[4,5-d]pyrimidin-7-one], the figures for the IC50 at NLRP3 [1] and against NLRP3 [2] were below 15 nM and below 5 nM, respectively. The corresponding values for `Cc1cc(Br)cc(C)c1-n1nc2nc(N3CCCC3)[nH]c(=O)c2n1` [Compound 51, 2-(4-bromo-2,6-dimethylphenyl)-5-(pyrrolidin-1-yl)-2,6-dihydro-7H-[1,2,3]triazolo[4,5-d]pyrimidin-7-one] are below 5 nM and below 5 nM. As to `Cc1cc(C2CC2)cc(C)c1-n1nc2nc(N(C)CCN(C)C)[nH]c(=O)c2n1` [Compound 101, 2-(4-cyclopropyl-2,6-dimethylphenyl)-5-((2-(dimethylamino)ethyl)(methyl)amino)-2,6-dihydro-7H-[1,2,3]triazolo[4,5-d]pyrimidin-7-one], the concentration for half-maximal inhibition (IC50) against NLRP3 [1] was below 100 nM; against NLRP3 [2] it was below 10 nM. Taken in the same sequence, the figures for `O=c1[nH]c(N2CCCC2)nc2nn(-c3ccc(Br)cc3C(F)(F)F)nc12` [Compound 75, 2-(4-bromo-2-(trifluoromethyl)phenyl)-5-(pyrrolidin-1-yl)-2,6-dihydro-7H-[1,2,3]triazolo[4,5-d]pyrimidin-7-one] were below 10 nM and 2.5 nM. Taken in the same sequence, the figures for `Cc1cc(C2CC2)cc(F)c1-n1nc2nc(N3CCOCC3)[nH]c(=O)c2n1` [Compound 104, 2-(4-cyclopropyl-2-fluoro-6-methylphenyl)-5-morpholino-2,6-dihydro-7H-[1,2,3]triazolo[4,5-d]pyrimidin-7-one] were below 10 nM and below 6 nM. The corresponding values for `CCN1CCN(c2nc3nn(-c4c(C)cc(C5CC5)cc4F)nc3c(=O)[nH]2)CC1` [Compound 106, 2-(4-cyclopropyl-2-fluoro-6-methylphenyl)-5-(4-ethylpiperazin-1-yl)-2,6-dihydro-7H-[1,2,3]triazolo[4,5-d]pyrimidin-7-one] are above 100 nM and above 100 nM. Consider `Cc1cc(C2CC2)cc(C)c1-n1nc2nc(N3CCCC3)[nH]c(=O)c2n1` [Compound 53, 2-(4-cyclopropyl-2,6-dimethylphenyl)-5-(pyrrolidin-1-yl)-2,6-dihydro-7H-[1,2,3]triazolo[4,5-d]pyrimidin-7-one], for which the values for the IC50 against NLRP3 [1] and against NLRP3 [2] were below 5 nM and at most 1 nM, respectively. For the molecule `CCN(CC)c1nc2nn(-c3c(C)cc(Br)cc3C)nc2c(=O)[nH]1` [Compound 95, 2-(4-bromo-2,6-dimethylphenyl)-5-(diethylamino)-2,6-dihydro-7H-[1,2,3]triazolo[4,5-d]pyrimidin-7-one], the half-inhibitory concentration (IC50) against NLRP3 [1] and against NLRP3 [2] was below 6.2 nM in each case. With `O=c1[nH]c(N2CCCC2)nc2nn(-c3ccc(Br)cc3Cl)nc12` [Compound 97, 2-(4-bromo-2-chlorophenyl)-5-(pyrrolidin-1-yl)-2,6-dihydro-7H-[1,2,3]triazolo[4,5-d]pyrimidin-7-one], the concentration for half-maximal inhibition (IC50) on NLRP3 [1] is below 20 nM; against NLRP3 [2], 5 nM. Taken in the same sequence, the figures for `Cc1cc(C2CC2)cc(C)c1-n1nc2nc(N3CCCC3)[nH]c(=S)c2n1` [Compound 54, 2-(4-cyclopropyl-2,6-dimethylphenyl)-5-(pyrrolidin-1-yl)-2,6-dihydro-7H-[1,2,3]triazolo[4,5-d]pyrimidine-7-thione] were below 100 nM and below 100 nM. As to `Cc1cc(C2CC2)cc(C)c1-n1nc2nc(N3CCOCC3)[nH]c(=S)c2n1` [Compound 4, 2-(4-cyclopropyl-2,6-dimethylphenyl)-5-morpholino-2,6-dihydro-7H-[1,2,3]triazolo[4,5-d]pyrimidine-7-thione], the IC50 at NLRP3 [1] and against NLRP3 [2] was above 1000 nM each time. As for `Cc1cc(Br)cc(C)c1-n1nc2nc(N3CCOCC3)[nH]c(=O)c2n1` [Compound 1, 2-(4-bromo-2,6-dimethylphenyl)-5-morpholino-2,6-dihydro-7H-[1,2,3]triazolo[4,5-d]pyrimidin-7-one], the values for the concentration for half-maximal inhibition (IC50) against NLRP3 [1] and against NLRP3 [2] were below 20 nM and below 2.5 nM, respectively. Taken in the same sequence, the figures for `Cc1cc(Br)cc(C)c1-n1nc2nc(N3CCOCC3)[nH]c(=S)c2n1` [Compound 2, 2-(4-bromo-2,6-dimethylphenyl)-5-morpholino-2,6-dihydro-7H-[1,2,3]triazolo[4,5-d]pyrimidine-7-thione] were below 1600 nM and below 1600 nM.

As to `Cc1cc(Br)cc(C)c1-n1nc2nc(N3CCCC3)[nH]c(=S)c2n1` [Compound 52, 2-(4-bromo-2,6-dimethylphenyl)-5-(pyrrolidin-1-yl)-2,6-dihydro-7H-[1,2,3]triazolo[4,5-d]pyrimidine-7-thione], the half-maximal inhibitory concentration (IC50) at NLRP3 [1] was below 500 nM; at NLRP3 [2], below 50 nM.

`Cc1cc(C2CC2)cc(C)c1-n1nc2nc(N3CCOCC3)n(C)c(=O)c2n1` [Compound 108, 2-(4-cyclopropyl-2,6-dimethyl-phenyl)-6-methyl-5-morpholino-triazolo[4,5-d]pyrimidin-7-one] showed a 50% inhibitory concentration (IC50) at NLRP3 [1] below 500 nM. `COc1nc(N2CCOCC2)nc2nn(-c3c(C)cc(C4CC4)cc3C)nc12` [Compound 109, 4-[2-(4-cyclopropyl-2,6-dimethyl-phenyl)-7-methoxy-triazolo[4,5-d]pyrimidin-5-yl]morpholine] came in with a half-maximal inhibitory concentration (IC50) against NLRP3 [1] above 10000 nM. Consider `O=c1[nH]c(N2CCCC2)nc2nn(-c3c(F)cc(Br)cc3Cl)nc12` [Compound 98, 2-(4-bromo-2-chloro-6-fluorophenyl)-5-(pyrrolidin-1-yl)-2,6-dihydro-7H-[1,2,3]triazolo[4,5-d]pyrimidin-7-one], for which the IC50 against NLRP3 [1] is below 15 nM; against NLRP3 [2] it was 7.5 nM. As to `O=c1[nH]c(N2CCCC2)nc2nn(-c3c(Cl)cc(Br)cc3Cl)nc12` [Compound 91, 2-(4-bromo-2,6-dichlorophenyl)-5-(pyrrolidin-1-yl)-2,6-dihydro-7H-[1,2,3]triazolo[4,5-d]pyrimidin-7-one], the IC50 was below 15 nM against NLRP3 [1] and 7.5 nM against NLRP3 [2]. Take `O=c1[nH]c(N2CCCC2)nc2nn(-c3ccc(C4CC4)cc3C(F)(F)F)nc12` [Compound 77, 2-(4-cyclopropyl-2-(trifluoromethyl)phenyl)-5-(pyrrolidin-1-yl)-2,6-dihydro-7H-[1,2,3]triazolo[4,5-d]pyrimidin-7-one]: the concentration for half-maximal inhibition (IC50) at NLRP3 [1] and on NLRP3 [2] was below 10 nM in each case. Take `O=c1[nH]c(N2CCOCC2)nc2nn(-c3c(F)cc(C4CC4)cc3C(F)(F)F)nc12` [Compound 105, 2-(4-cyclopropyl-2-fluoro-6-(trifluoromethyl)phenyl)-5-morpholino-2,6-dihydro-7H-[1,2,3]triazolo[4,5-d]pyrimidin-7-one]: the IC50 against NLRP3 [1] was below 10 nM; on NLRP3 [2], below 6 nM.

As to `Cc1cc(Cl)cc(C)c1-n1nc2nc(N3CCCC3)[nH]c(=O)c2n1` [Compound 63, 2-(4-chloro-2,6-dimethylphenyl)-5-(pyrrolidin-1-yl)-2,6-dihydro-7H-[1,2,3]triazolo[4,5-d]pyrimidin-7-one], the half-maximal inhibitory concentration (IC50) on NLRP3 [2] was 10 nM.
